{
  "source": "paper PMC11582173",
  "about": "“Synthesis, cytotoxicity, anti-inflammatory, anti-metastatic and anti-oxidant activities of novel chalcones incorporating 2-phenoxy-N-arylacetamide and thiophene moieties: induction of apoptosis in MCF7 and HEP2 cells” (Naunyn-Schmiedeberg's Archives of Pharmacology, 2024)",
  "key": {"Malondialdehyde (MDA)": {"system": "Malondialdehyde (MDA)", "experiment": "ELISA, MDA concentration", "format": "cell-based, human", "procedure": "The concentrations of matrix metalloproteinase-2 (MMP2), matrix metalloproteinase-9 (MMP9), Bcl2, BAX, P53, Malondialdehyde (MDA), Glutathione (GSH), caspase 8, caspase 9 and IL-6 were measured quantitatively in 5c treated MCF7 and HEP2 cells using ELISA (Enzyme-Linked Immunosorbent Assay) (Table 4). Gelatinases are a collective word for MMP-2 and MMP-9, where MMP-2 is gelatinase-A and MMP-9 is gelatinase-B. Solid tumor invasion, metastasis, and angiogenesis have long been linked to gelatinases (Das et al. [2021]). […] Bcl2 is a crucial protein that targets apoptosis inhibition. It is regarded as a predictive biomarker or therapeutic target in the diagnosis of cancer due to its broad expression in a variety of cancers (Porter et al. [2009]). […] The pro-apoptotic protein BAX permeabilizes the mitochondrial outer membrane by changing from a cytosolic monomer to a hazardous oligomer triggering the apoptosis process (Fulda and Debatin [2006]). […] P53 transcription factor performs an essential tumor suppressor role by coordinating a wide range of physiological responses, including DNA repair, cell cycle arrest, cellular senescence, cell death, cell differentiation, and metabolism (Liebl and Hofmann [2021]). It was activated in MCF7 and HEP2-treated cells with values (4.28 and 3.109 ng/mL), respectively, compared to their controls (3.44 and 2.06 ng/mL). […]"}, "MCF7 cells": {"system": "MCF7 cells", "experiment": "Wound healing scratch assay, MCF7", "format": "cell-based, human", "details": "MCF7, 5c at its IC50, 48 h; untreated C0 518.531±12.437, C48 h 160.647±61.276", "procedure": "To examine the effect of chalcone 5c on the migration properties of the MCF7 and HEP2 cells, the wound-healing scratch assay was used. […] Chalcone 5c at its IC50 reduced the ability to close the scrape wound and decreased the number of migrating MCF7 and HEP2 cells compared to the untreated cells (Fig. 4 and Table 6). The scratch gap percentage in 5c treated MCF7 was 344.684±41.224 relative to the control cells (160.647±61.276) after 48 h of treatment. The scratch gap in HEP2 treated with 5c was 567.281±112.789 compared to the untreated control HEP2 cells (211.604±79.883) after 48 h.\nMCF7 and HEP2 treated and untreated cells were detached from the tissue culture plate using 0.25% Trypsin-EDTA solution. Cells pellet was prepared in a 15 mL conical tube by centrifugation. The supernatant was aspirated, and the cells were re-suspended in culture media. The appropriate number of cells was platted in a 6-well plate for 100% confluence in 24 hours. In a sterile environment (typically a biosafety hood), a 200 μL pipette tip was used to press firmly against the […] of the tissue culture plate and swiftly made a vertical wound down through the cell monolayer. Carefully, the media and cell debris were aspirated. Slowly, enough culture media was added against the good wall to cover the bottom of the well and avoid detaching additional cells. […]"}},
  "note": "“And” between values parts separate entries of the source, which are not always exact repeats. Equal entries are not always repeated.",
  "data": [
    {"smiles": "COc1ccc(NC(=O)COc2ccc(C=CC(=O)c3cccs3)cc2)cc1", "note": "[Compound 5c, N-(4-Methoxyphenyl)-2-(4-(3-oxo-3-(thiophen-2-yl)prop-1-en-1-yl)phenoxy)acetamide]", "values": [
      {"measurement": "MDA concentration", "setting": "Malondialdehyde (MDA); 5c treated HEP2 cells, untreated 17.44±0.309", "result": "11.988 nM and 11.988 ± 0.178 nM"},
      {"measurement": "MDA concentration", "setting": "Malondialdehyde (MDA); 5c treated MCF7 cells, untreated 15.79±0.178", "result": "8.79 nM and 8.79 ± 0.309 nM"},
      {"measurement": "% Scratch gap", "setting": "MCF7 cells", "result": "344.684±41.224", "unit": "%"}
    ]}
  ]
}
